Literature values as cited in patent US8759329B2 (Unimed Pharmaceuticals, LLC, priority 2005, dated 2014).

Assays:
protein (SHBG, albumin) [1] = biological target: protein (SHBG, albumin) (Homo sapiens, UniProt P02768); conditions: in men
protein (SHBG, albumin) [2] = biological target: T1, protein (SHBG, albumin) (Homo sapiens, UniProt P04278); conditions: in men
T1 sequence (P04278 30-402): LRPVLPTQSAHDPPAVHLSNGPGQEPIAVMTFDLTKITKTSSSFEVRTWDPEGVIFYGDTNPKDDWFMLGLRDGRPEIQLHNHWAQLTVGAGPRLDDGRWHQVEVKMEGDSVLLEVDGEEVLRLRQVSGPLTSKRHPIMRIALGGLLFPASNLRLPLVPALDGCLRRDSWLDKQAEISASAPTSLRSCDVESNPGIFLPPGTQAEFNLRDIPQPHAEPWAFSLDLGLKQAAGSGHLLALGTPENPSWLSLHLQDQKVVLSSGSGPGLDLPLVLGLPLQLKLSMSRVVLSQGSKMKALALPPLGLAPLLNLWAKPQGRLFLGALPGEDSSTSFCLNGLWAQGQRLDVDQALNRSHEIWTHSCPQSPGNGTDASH

protein (SHBG, albumin) [3] = conditions: circulating testosterone

Sequence of protein (SHBG, albumin) (Homo sapiens, UniProt P02768) (P02768 25-609): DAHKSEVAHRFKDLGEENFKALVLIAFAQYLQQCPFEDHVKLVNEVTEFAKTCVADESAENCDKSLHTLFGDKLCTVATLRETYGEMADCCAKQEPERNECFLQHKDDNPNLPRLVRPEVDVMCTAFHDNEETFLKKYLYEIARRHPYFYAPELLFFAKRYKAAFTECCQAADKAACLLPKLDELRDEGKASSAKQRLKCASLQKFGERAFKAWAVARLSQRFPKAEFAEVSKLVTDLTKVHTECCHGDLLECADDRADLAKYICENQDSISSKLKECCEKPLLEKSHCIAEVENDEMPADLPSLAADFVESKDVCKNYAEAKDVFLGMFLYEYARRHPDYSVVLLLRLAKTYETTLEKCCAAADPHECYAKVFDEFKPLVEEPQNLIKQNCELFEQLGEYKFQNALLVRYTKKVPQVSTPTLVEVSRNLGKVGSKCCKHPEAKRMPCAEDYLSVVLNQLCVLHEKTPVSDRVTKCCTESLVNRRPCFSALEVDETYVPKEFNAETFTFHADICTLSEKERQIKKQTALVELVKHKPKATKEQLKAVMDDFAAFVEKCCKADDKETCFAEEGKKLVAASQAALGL

SMILES: C[C@]12CC[C@H]3[C@@H](CCC4=CC(=O)CC[C@@]43C)[C@@H]1CC[C@@H]2O [testosterone]
- share bound weakly to albumin (protein (SHBG, albumin) [1]): 60%
- share of the binding to SHBG (protein (SHBG, albumin) [2]): approximately 40%
- bound to protein in the blood (protein (SHBG, albumin) [3]): 98%
